Measured values from patent US10745380B2, “Pyridine derivatives and their use in the treatment of cancer and hemoglobinopathies” (CTXT PTY LTD, priority 2016, dated 2020).
Structures can show the parent of a compound that is named as a salt.

Key:
[1] = target: Full-length PRMT5 enzyme co-expressed with His6-MEP50 (Homo sapiens (Human), UniProt O14744); assay: PRMT5 Biochemical Assay; conditions: Transcreener EPIGEN methyltransferase assay, histone H4 derived peptide substrate, 4 hours at 37 degree Celsius
Chain of Full-length PRMT5 enzyme co-expressed with His6-MEP50 (O14744 whole entry): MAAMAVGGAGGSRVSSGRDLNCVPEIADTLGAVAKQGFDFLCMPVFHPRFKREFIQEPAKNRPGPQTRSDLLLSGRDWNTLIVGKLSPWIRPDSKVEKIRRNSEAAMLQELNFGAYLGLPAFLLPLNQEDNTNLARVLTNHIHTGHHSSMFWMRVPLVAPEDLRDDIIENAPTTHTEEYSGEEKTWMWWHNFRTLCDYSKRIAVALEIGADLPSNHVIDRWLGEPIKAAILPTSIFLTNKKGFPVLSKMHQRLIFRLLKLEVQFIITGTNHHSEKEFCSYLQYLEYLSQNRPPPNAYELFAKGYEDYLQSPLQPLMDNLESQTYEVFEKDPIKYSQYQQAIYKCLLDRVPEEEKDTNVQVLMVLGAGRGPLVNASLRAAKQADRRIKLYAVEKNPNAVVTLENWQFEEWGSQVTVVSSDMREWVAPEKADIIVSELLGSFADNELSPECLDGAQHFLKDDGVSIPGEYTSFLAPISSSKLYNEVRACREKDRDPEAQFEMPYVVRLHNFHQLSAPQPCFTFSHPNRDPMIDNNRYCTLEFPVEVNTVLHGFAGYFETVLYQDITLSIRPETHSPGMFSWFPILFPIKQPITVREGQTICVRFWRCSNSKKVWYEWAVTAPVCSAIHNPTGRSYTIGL
Chain of Full-length PRMT5 enzyme co-expressed with His6-MEP50 (Q9BQA1 whole entry partner): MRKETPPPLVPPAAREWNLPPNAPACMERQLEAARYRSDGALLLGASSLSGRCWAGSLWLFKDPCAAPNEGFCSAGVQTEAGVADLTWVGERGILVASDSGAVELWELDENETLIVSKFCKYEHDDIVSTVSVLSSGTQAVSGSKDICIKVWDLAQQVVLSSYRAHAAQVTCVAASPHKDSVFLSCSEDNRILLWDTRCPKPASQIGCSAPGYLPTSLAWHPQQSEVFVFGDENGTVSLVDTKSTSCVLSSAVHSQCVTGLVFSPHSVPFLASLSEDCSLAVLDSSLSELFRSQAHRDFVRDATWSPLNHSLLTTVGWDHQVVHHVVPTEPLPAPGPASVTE
Description: Assays PRMT5 Biochemical Assay
Compounds of the invention may be tested for in vitro activity in the following assay: A histone H4 derived peptide is used as substrate (amino acid sequence: […]NH2). Full-length PRMT5 enzyme (NCBI Reference sequence NP_006100.2) was co-expressed with His6-MEP50 in insect cells and purified via Nickel immobilized metal affinity and gel filtration chromatography (“the enzyme”).
The 6 μL reactions are run in Greiner brand black 384-well low volume assay plates. All reactions contained assay buffer (phosphate buffered saline, 0.01% (v/v) Tween-20, 0.01% (w/v) albumin from chicken egg white, 1 mM Dithiothreitol, 1 μM peptide substrate, 1 μM S-Adenosyl methionine, and 15 ng/reaction enzyme, with the enzyme being omitted from negative control reactions. Compounds were added in a volume of 100 nL from dilution series prepared in DMSO, positive and negative control reactions receiving the same volume DMSO without compound. The plates were sealed with adhesive seals and incubated for 4 hours at 37 degree Celsius. Reaction progress was measured using the Transcreener™ EPIGEN methyltransferase assay (BellBrook Labs, Madison, Wis.) as recommended by the manufacturer. To each reaction 2 μL detection mix were added, containing coupling enzymes, fluorescence polarisation tracer, and AMP antibody. […]

TE11 cell line = assay: PRMT5 Biomarker Assay (symmetrical dimethylation of arginine, Histone H4 Arginine 3); format: cell-based; conditions: TE11 cells, 72 hours incubation, Di-Methyl Histone H4 Arginine 3 level
Description: Compounds of the invention may be tested for potency to inhibit symmetrical dimethylation of arginine in the following assay:
The cell line TE11 was seeded at a density of 6,000 cells per well in 96 well optical quality tissue culture plates in DME medium and 10% foetal bovine serum, and allowed to adhere for 5 hours under standard culture conditions (37 degree Celsius, 5% CO2). Compound dilutions prepared in DMSO were added to the medium, with negative control wells reserved for treatment with DMSO only and maximum inhibition controls receiving a potent PRMT5 inhibitor compound at 1 μM concentration. After incubation for 72 hours, the cells were fixed with 3.7% formaldehyde in PBS for 30 minutes at room temperature, washed with phosphate buffer saline and blocked with Odyssey blocking buffer (LI-COR, Lincoln, Nebr.). Rabbit anti-Di-Methyl Histone H4 Arginine 3 specific antibody (Epigentek) in Odyssey blocking buffer was added and incubated for 14 hours at 4 degree Celsius. […] Plates were washed and read on a PerkinElmer Envision 2103 in fluorescence intensity scanning mode (24 scans across the well area). […] Using a Columbus image analysis pipeline, individual nuclei were located by Hoechst 33342 stain and the methylation level was calculated from the Alexa647-related intensity in the same area. […]

| IC50 (TE11 cell line; Homo sapiens, TE-11) [nM] | SMILES | IC50 [1] [nM] | IC50 (TE11 cell line) [nM] |
| --- | --- | --- | --- |
| 35 | CC(=O)N1CCC(Nc2nccc(C(=O)NC[C@@H](O)CNC3Cc4ccccc4C3)c2Cl)CC1 [Compound 2] | 105 | – |
| – | CCOc1nc(OCc2ccccc2)ccc1C(=O)NC[C@@H](O)CNC1Cc2ccccc2C1 [Compound 1, (S)-6-(Benzyloxy)-N-(3-((2,3-dihydro-1H-inden-2-yl)amino)-2-hydroxypropyl)-2-ethoxy nicotin amide hydrochloride] | 86 | 79 |
